Results as given in the supplement of paper PMC11208160.

assay: recombinant UMI read abundance after kanamycin selection (control-corrected) (log10(CPM+1)); higher = more efficient recombination; extreme values may be limits of the assay; sequences stand for … in AGTGCAGAGAAAATCGGCCAGTTTTCTCTGCCTGCAGTCCGCATGCCGTGGGACCCCTTGGGTTCTAACCTGTTGCCTAGATTTATGCAGCGGACTGCCTTTCTCCCAAAGTGATAAACCGG…AGGTTGGTTTCACT; site = the 11-nt donor
Method in brief: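 Sequenced counts of recombinant UMIs were turned into CPM, averaged across replicates and scaled with control-derived factors. The reported figure is log10(CPM+1). Those UMIs, each 12 nt long, tagged donor and donor-binding-loop pairs on a plasmid with a promoterless kanamycin gene, screened as a pool in Escherichia coli with IPTG (0.07 mM) plus kanamycin or without selection.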
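Note: IS621 bridge recombinase in Escherichia coli cells against a fixed T5 target plasmid.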

Sequence | recombinant UMI read abundance (log10)
TTAGCTGCATGGACCGGTTTTCCCGGTAATCCGTATTTGTA (site TTAGCTGCTTA) | 1.35
TTAGCTTCATGGACCGGTTTTCCCGGTAATCCGTATTTGTG (site TTAGCTACTCA) | 0.0149
TTAGCTTCATGGACCGGTTTTCCCGGTAATCCGTATTTGTG (site TTAGCTCCTCA) | 0.012
TTAGCTTCATGGACCGGTTTTCCCGGTAATCCGTATTTGTG (site TTAGCTGCTCA) | 0.00609
TTAGCTTCATGGACCGGTTTTCCCGGTAATCCGTATTTGTG (site TTAGCTTCTCA) | 0.478
TTAGGTTCATGGACCGGTTTTCCCGGTAATCCGTATTTGGC (site TTAGGTTCTGC) | 2.53
TTAGTATCATGGACCGGTTTTCCCGGTAATCCGTATTTGAG (site CTAGTATCTGT) | 0
TTAGTATCATGGACCGGTTTTCCCGGTAATCCGTATTTGAG (site TTAGTATCTCT) | 1.66
TTAGTCTCATGGACCGGTTTTCCCGGTAATCCGTATTTGAC (site CTAGTATCTGT) | 0
TTAGTCTCATGGACCGGTTTTCCCGGTAATCCGTATTTGAC (site TTAGTCTCTGT) | 3.02
TTATCTGCATGGACCGGTTTTCCCGGTAATCCGTATTTGTG (site TTAACTGCTCA) | 0.00525
TTATCTGCATGGACCGGTTTTCCCGGTAATCCGTATTTGTG (site TTACCTGCTCA) | 0.0587
TTATCTGCATGGACCGGTTTTCCCGGTAATCCGTATTTGTG (site TTAGCTGCTCA) | 0.00464
TTATCTGCATGGACCGGTTTTCCCGGTAATCCGTATTTGTG (site TTATCTGCTCA) | 1.73
TTATGGTCATGGACCGGTTTTCCCGGTAATCCGTATTTGGC (site TTATGGTCTGC) | 1.88
TTATGTACATGGACCGGTTTTCCCGGTAATCCGTATTTGGG (site TTATGTACTCC) | 0.0157
TTATTGTCATGGACCGGTTTTCCCGGTAATCCGTATTTGCA (site TTATTGTCTTG) | 2.35
TTCAAGTCATGGACCGGTTTTCCCGGTAATCCGTATTTGTA (site TTCAAGTCTTA) | 0.621
TTCACGGCATGGACCGGTTTTCCCGGTAATCCGTATTTGTC (site TTCACGGCTGA) | 0.624
TTCAGTCCATGGACCGGTTTTCCCGGTAATCCGTATTTGAT (site TTCAGTCCTAT) | 0
TTCATTACATGGACCGGTTTTCCCGGTAATCCGTATTTGAT (site TTCATTACTAT) | 0
TTCCAAGCATGGACCGGTTTTCCCGGTAATCCGTATTTGAG (site ATCCAAGCTCT) | 0
TTCCAAGCATGGACCGGTTTTCCCGGTAATCCGTATTTGAG (site CTCCAAGCTCT) | 0.00912
TTCCAAGCATGGACCGGTTTTCCCGGTAATCCGTATTTGAG (site GTCCAAGCTCT) | 0.0126
TTCCAAGCATGGACCGGTTTTCCCGGTAATCCGTATTTGAG (site TTCCAAGCTCT) | 0.0285
TTCCAGCCATGGACCGGTTTTCCCGGTAATCCGTATTTGTG (site TTCCAGCCTCA) | 0.0201

Sequence | recombinant UMI read abundance (log10)
TTCCCTACATGGACCGGTTTTCCCGGTAATCCGTATTTGAG (site ATCCCTACTCT) | 0
TTCCCTACATGGACCGGTTTTCCCGGTAATCCGTATTTGAG (site CTCCCTACTCT) | 0.0509
TTCCCTACATGGACCGGTTTTCCCGGTAATCCGTATTTGAG (site GTCCCTACTCT) | 0.0155
TTCCCTACATGGACCGGTTTTCCCGGTAATCCGTATTTGAG (site TTCCCTACTCT) | 0.00443
TTCGACCCATGGACCGGTTTTCCCGGTAATCCGTATTTGAG (site TTCGACCCTCT) | 0.00989
TTCGAGACATGGACCGGTTTTCCCGGTAATCCGTATTTGAC (site TTCGAGACTGT) | 1.53
TTCGAGGCATGGACCGGTTTTCCCGGTAATCCGTATTTGAT (site TTCGAGGCTAT) | 0.482
TTCGCACCATGGACCGGTTTTCCCGGTAATCCGTATTTGGT (site TTCGCACCTAC) | 0.00499
TTCGCTGCATGGACCGGTTTTCCCGGTAATCCGTATTTGTA (site TTCGCTGCTTA) | 0.369
TTCTACGCATGGACCGGTTTTCCCGGTAATCCGTATTTGTT (site TTCTACGCTAA) | 0.603
TTCTAGGCATGGACCGGTTTTCCCGGTAATCCGTATTTGCG (site TTCTAGGCTCG) | 0.0116
TTCTTCACATGGACCGGTTTTCCCGGTAATCCGTATTTGTC (site TTCTTCACTGA) | 0
TTGAACGCATGGACCGGTTTTCCCGGTAATCCGTATTTGAC (site TTGAACGCTGT) | 0.899
TTGACTACATGGACCGGTTTTCCCGGTAATCCGTATTTGCT (site TTGACTACTAG) | 1.09
TTGATTACATGGACCGGTTTTCCCGGTAATCCGTATTTGGC (site TTGATTACTGC) | 0
TTGATTCCATGGACCGGTTTTCCCGGTAATCCGTATTTGAC (site TTGATTCCTGT) | 0.35
TTGCAAGCATGGACCGGTTTTCCCGGTAATCCGTATTTGCT (site TTGCAAGCTAG) | 0
TTGCTACCATGGACCGGTTTTCCCGGTAATCCGTATTTGCT (site ATGCTACCTAG) | 0
TTGCTACCATGGACCGGTTTTCCCGGTAATCCGTATTTGCT (site CTGCTACCTAG) | 0.00337
TTGCTACCATGGACCGGTTTTCCCGGTAATCCGTATTTGCT (site GTGCTACCTAG) | 0
TTGCTACCATGGACCGGTTTTCCCGGTAATCCGTATTTGCT (site TTGCTACCTAG) | 0
TTGGCAACATGGACCGGTTTTCCCGGTAATCCGTATTTGAT (site TTGGCAACTAT) | 0.238
TTGGCGCCATGGACCGGTTTTCCCGGTAATCCGTATTTGAG (site TTGGCGCCTCT) | 0.00946
TTGGTAACATGGACCGGTTTTCCCGGTAATCCGTATTTGAC (site TTGGTAACTGT) | 2.33
TTGGTATCATGGACCGGTTTTCCCGGTAATCCGTATTTGTG (site TTGGTATCTCA) | 1.82
TTGGTGGCATGGACCGGTTTTCCCGGTAATCCGTATTTGTC (site TTGGTGGCTGA) | 1.5
